Measured values published in the NIST ThermoML archive (doi:10.1016/j.jct.2016.03.030).

Assay: xn = mol fraction of the nth substance listed
Conditions: 100 kPa, Liquid; for viscosity: Falling or rolling sphere viscometry; for mass density: Vibrating tube method

CCCCC[N+]1(C)CCOCC1.[Br-] [4-methyl-4-pentylmorpholinium bromide] + O
Conditions | mass density, 298.15 K [kg/m3] | mass density, 303.15 K [kg/m3] | mass density, 308.15 K [kg/m3] | mass density, 313.15 K [kg/m3] | mass density, 318.15 K [kg/m3] | viscosity, 298.15 K [mPa·s] | viscosity, 303.15 K [mPa·s] | viscosity, 308.15 K [mPa·s] | viscosity, 313.15 K [mPa·s] | viscosity, 318.15 K [mPa·s]
x1 = 0.0316 | 1072.8 | 1070.5 | 1067.9 | 1065.3 | 1062.6 | 1.957 | 1.7 | 1.484 | 1.309 | 1.159
x1 = 0.0695 | 1127.6 | 1124.5 | 1121.3 | 1118.1 | 1114.9 | 4.131 | 3.505 | 2.997 | 2.586 | 2.252
x1 = 0.0965 | 1153.8 | 1150.6 | 1147.2 | 1143.9 | 1140.5 | 6.746 | 5.63 | 4.74 | 4.035 | 3.465
x1 = 0.1196 | 1170 | 1166.6 | 1163.3 | 1159.8 | 1156.4 | 9.795 | 8.076 | 6.709 | 5.642 | 4.796
x1 = 0.1522 | 1187.7 | 1184.4 | 1181 | 1177.5 | 1174.1 | 16.25 | 13.14 | 10.79 | 8.994 | 7.569
x1 = 0.2054 | 1208.2 | 1204.9 | 1201.5 | 1198.1 | 1194.7 | 36.11 | 28.07 | 22.24 | 17.82 | 14.56
x1 = 0.219 | 1212.2 | 1208.8 | 1205.5 | 1202.1 | 1198.7 | 44.38 | 34.04 | 26.62 | 21.2 | 17.13
x1 = 0.2438 | 1218.9 | 1215.6 | 1212.2 | 1208.9 | 1205.5 | 64.59 | 48.66 | 37.45 | 29.17 | 23.22
x1 = 0.2754 | 1226 | 1222.7 | 1219.4 | 1216.1 | 1212.7 | 103.9 | 76.46 | 57.57 | 44.03 | 34.22
